These results are taken from ChEMBL document CHEMBL4196050, “Design, synthesis, and biological evaluation of compounds with a new scaffold as anti-neuroinflammatory agents for the treatment of Alzheimer's disease” (Eur J Med Chem, 2018).

pIC50: −log10 of the molar value.

The nature of the experiment: Anti-inflammatory activity in LPS-induced mouse N9 cells assessed as reduction in IL-1beta production pretreated for 18 hrs followed LPS stimulation and measured after 48 hrs by ELISA. The format is functional, cell-based. (In general: ELISA stands for enzyme-linked immunosorbent assay.)

As usually defined, the pIC50 is the IC50 on a negative log10 scale, so that one unit is a factor of ten. Consider `Cc1cc(-c2ccccc2)nnc1C(=O)N1CCN(c2ncccn2)CC1`, for which the pIC50 was 8.47.
